Experimental findings from patent US12509422B2, “Bisamide compound and application thereof” (METISA BIOTECHNOLOGY CO., LTD, priority 2019, dated 2025) are described below.

The assay has as its system Chilo suppressalis. As to the kind of experiment: Insecticidal activity against Chilo suppressalis, sprayed Oryza sativa seedlings, stalks fed to larvae. Type of assay: in vivo. To be noted: parallel comparison test; for pest or weed control at 1 µg/mL / pest or weed control at 10 µg/mL: Chilo suppressalis, 72 h, 3 days after the treatment; for pest or weed control at 1 µg/mL: 1 mg/L, read-out: Lethality rate (%, 3 days after the treatment) 1 mg/L; for pest or weed control at 10 µg/mL: 10 mg/L, read-out: Lethality rate (%, 3 days after the treatment) 10 mg/L. Here is the method:
The compounds of the invention were determined for the insecticidal activities against several insects. The determination method was as follows:
After being dissolved in a mixed solvent of acetone/methanol (1:1), the test compound was diluted with water containing 0.1% (wt) Tween 80 to the desired concentration.
With Leucania separata, Plutella xylostella, and Chilo suppressalis as targets, airbrush spray method was used for the determination of activity.
Determination method: 1) Preparation of Oryza sativa seedlings: Oryza sativa was cultivated in a constant temperature room (a temperature of 26-28° C., a relative humidity of about 60-80%, and a light illumination of 16hL:8hD) in a small plastic cup with a diameter of 4.5 cm and a height of 4 cm, and when the Oryza sativa grew up to the 4-5 leaf stage, robust and consistent Oryza sativa seedlings were selected for chemical treatment, and 3 repetitions were performed for each treatment. 2) Preparation for test insects: Chilo suppressalis at 3rd instar larvae were raised continuously indoors. 3) The Oryza sativa stems were sprayed and insects were introduced. Spraying was performed uniformly on the whole plant of the Oryza sativa seedlings, with 15 ml of compound solution for each treatment. The blank control was treated first, and then the above operations were repeated in the order of the test concentration from low to high. After the Oryza sativa seedlings were sprayed, they were placed in a cool place to dry the liquid, and about 5 cm of stalks at the base of the stems were cut and fed to the test insects. A glass petri dish with a diameter of 90 mm was placed with filter paper at the bottom of the dish, and then was moisturized by adding water. After that, about 5 rice stalks and 10 larvae were placed in each dish, and the petri dish was sealed with a non-woven fabric and placed in a constant temperature room for cultivation. The number of remaining live insects was investigated 3 days after the treatment.
The compounds 1, 3, 7, 11 of this disclosure and the comparative compounds were selected for a parallel comparison test of the insecticidal activity against Chilo suppressalis (3 days after the treatment), through a same determination method as that described above.

Molecules are shown by their SMILES.

For `O=C(Nc1c(Br)cc(C(F)(C(F)(F)F)C(F)(F)F)cc1Br)c1cccc(N(CC2CC2)C(=O)c2cccnc2)c1F` [Compound 1-2], the pest or weed control at 1 µg/mL is 0% and the pest or weed control at 10 µg/mL was 0%.

On to `O=C(Nc1c(Br)cc(C(F)(C(F)(F)F)C(F)(F)F)cc1C(F)(F)F)c1cccc(N(CC2CC2)C(=O)c2ccc(F)cc2)c1F` [Compound 2-1], for which the pest or weed control at 1 µg/mL is 96.7%; the pest or weed control at 10 µg/mL was 100%; the “Lethality rate (%, 3 days after the treatment) 0.25 mg/L” value was determined as 23.33%; the “Lethality rate (%, 3 days after the treatment) 0.5 mg/L” value was 66.67%.

Take `N#Cc1ccc(C(=O)N(CC2CC2)c2cccc(C(=O)Nc3c(Br)cc(C(F)(C(F)(F)F)C(F)(F)F)cc3C(F)(F)F)c2F)cc1` [Compound 4-1]: the pest or weed control at 1 µg/mL was determined as 93.3%; the pest or weed control at 10 µg/mL came to 100%; the “Lethality rate (%, 3 days after the treatment) 0.25 mg/L” value was 16.67%; the “Lethality rate (%, 3 days after the treatment) 0.5 mg/L” value was 53.33%.

As for `O=C(Nc1c(Br)cc(C(F)(C(F)(F)F)C(F)(F)F)cc1C(F)(F)F)c1cccc(N(CC2CC2)C(=O)c2ccc(C(F)(F)F)cc2)c1F` [Compound 3-1], the pest or weed control at 1 µg/mL stood at 56.7%; the pest or weed control at 10 µg/mL was 100%; the “Lethality rate (%, 3 days after the treatment) 0.25 mg/L” value worked out at 0%; the “Lethality rate (%, 3 days after the treatment) 0.5 mg/L” value turned out to be 26.67%.

For the molecule `O=C(Nc1c(Br)cc(C(F)(C(F)(F)F)C(F)(F)F)cc1C(F)(F)F)c1cccc(N(CC2CC2)C(=O)c2cccnc2)c1F` [Compound 5-1], the pest or weed control at 1 µg/mL is 0% and the pest or weed control at 10 µg/mL stood at 16.7%.

Regarding `O=C(Nc1c(Br)cc(C(F)(C(F)(F)F)C(F)(F)F)cc1Br)c1cccc(N(CC2CC2)C(=O)c2ccc(F)cc2)c1F` [Compound 1-1], the pest or weed control at 1 µg/mL was determined as 50%; the pest or weed control at 10 µg/mL stood at 100%; the “Lethality rate (%, 3 days after the treatment) 0.25 mg/L” value was found to be 0%; the “Lethality rate (%, 3 days after the treatment) 0.5 mg/L” value turned out to be 13.33%.

`N#Cc1ccc(C(=O)N(CC2CC2)c2cccc(C(=O)Nc3c(Br)cc(C(F)(C(F)(F)F)C(F)(F)F)cc3C(F)(F)F)c2F)cn1` [Compound 11]: the pest or weed control at 1 µg/mL was 100%; the pest or weed control at 10 µg/mL is 100%; the “Lethality rate (%, 3 days after the treatment) 0.25 mg/L” value stood at 100%; the “Lethality rate (%, 3 days after the treatment) 0.5 mg/L” value amounted to 100%.

On to `O=C(Nc1c(Br)cc(C(F)(C(F)(F)F)C(F)(F)F)cc1C(F)(F)F)c1cccc(N(CC2CC2)C(=O)c2ccc(F)nc2)c1F` [Compound 3], for which the pest or weed control at 1 µg/mL amounted to 100%; the pest or weed control at 10 µg/mL was 100%; the “Lethality rate (%, 3 days after the treatment) 0.25 mg/L” value is reported as 100%; the “Lethality rate (%, 3 days after the treatment) 0.5 mg/L” value came out at 100%.

In the case of `O=C(Nc1c(Br)cc(C(F)(C(F)(F)F)C(F)(F)F)cc1C(F)(F)F)c1cccc(N(CC2CC2)C(=O)c2ccc(Cl)nc2)c1F` [Compound 5-2], the pest or weed control at 1 µg/mL is 33.3%; the pest or weed control at 10 µg/mL is 70%; the “Lethality rate (%, 3 days after the treatment) 0.5 mg/L” value is on record as 0%.
